Tests used:
cPLA2 = biological target: T1, cPLA2 (Homo sapiens, UniProt P47712); experiment: Coumarin Assay (cPLA2 inhibition); type: biochemical; settings: for inhibition at 2.5 µM: CONCENTRATION 2.5 micromolar; for inhibition at 30 µM: CONCENTRATION 30 micromolar
T1 sequence (P47712 1-749): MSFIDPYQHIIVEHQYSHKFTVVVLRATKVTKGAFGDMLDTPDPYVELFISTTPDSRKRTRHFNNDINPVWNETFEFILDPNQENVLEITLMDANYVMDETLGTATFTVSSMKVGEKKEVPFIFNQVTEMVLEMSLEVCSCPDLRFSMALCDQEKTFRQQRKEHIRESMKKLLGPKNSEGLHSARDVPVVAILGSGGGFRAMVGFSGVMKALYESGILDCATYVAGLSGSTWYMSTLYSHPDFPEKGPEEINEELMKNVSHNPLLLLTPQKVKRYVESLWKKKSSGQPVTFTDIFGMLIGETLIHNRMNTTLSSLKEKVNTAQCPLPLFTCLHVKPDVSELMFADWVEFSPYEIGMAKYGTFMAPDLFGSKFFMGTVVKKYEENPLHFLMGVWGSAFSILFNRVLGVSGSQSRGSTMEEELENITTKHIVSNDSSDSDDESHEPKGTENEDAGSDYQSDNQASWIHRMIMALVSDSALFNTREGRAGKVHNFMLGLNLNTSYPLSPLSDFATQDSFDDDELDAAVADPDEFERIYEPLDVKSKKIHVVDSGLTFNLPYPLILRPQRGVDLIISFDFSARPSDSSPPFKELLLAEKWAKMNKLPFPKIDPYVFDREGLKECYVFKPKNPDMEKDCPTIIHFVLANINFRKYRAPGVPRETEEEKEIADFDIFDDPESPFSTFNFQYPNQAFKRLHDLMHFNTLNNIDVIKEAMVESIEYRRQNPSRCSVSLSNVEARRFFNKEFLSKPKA
In short: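 Percent inhibition at the stated concentration, from the rate of 460 nm emission rise (360 nm excitation) per minute. Reaction started by adding 4 μg enzyme to compound and 60 μM 7-hydroxycoumarinyl 6-heptenoate in Hepes buffer pH 7.5 with 1 mM EDTA.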

[1] = test system: Rat Carrageenan-Induced Footpad Edema; experiment: Rat Carrageenan-Induced Footpad Edema Test; type: in vivo, male Sprague Dawley rats; settings: footpad volume 3 hours after carrageenan; for inhibition in vivo at 5 mg/kg / inhibition in vivo at 2 mg/kg / inhibition in vivo at 10 mg/kg: Rattus norvegicus, 3 h, read-out: PERCENT INHIBITION; for inhibition in vivo at 5 mg/kg: iv, IV; for PERCENT INHIBITION / inhibition in vivo at 2 mg/kg / inhibition in vivo at 10 mg/kg: PO; for inhibition in vivo at 2 mg/kg / inhibition in vivo at 10 mg/kg: po
[2] = CONCENTRATION 100 micromolar, read-out: PERCENT INHIBITION @

COc1cc(C(=O)NS(=O)(=O)C(F)(F)F)ccc1Cc1cn(C(c2ccccc2)c2ccccc2)c2ccc(NC(=O)c3ccsc3)cc12 [Example 46, N-{1-benzhydryl-3-[2-methoxy-4-({[(trifluoromethyl)sulfonyl]amino}carbonyl)benzyl]-1H-indol-5-yl}-3-thiophenecarboxamide]
inhibition at 2.2 µM (cPLA2; CONCENTRATION 2.2 micromolar, read-out: PERCENT INHIBITION @): 50%
inhibition at 2.5 µM (cPLA2; read-out: PERCENT INHIBITION @): 67%
inhibition at 2.7 µM (cPLA2; CONCENTRATION 2.7 micromolar, read-out: PERCENT INHIBITION @): 50%
inhibition at 3.5 µM (cPLA2; CONCENTRATION 3.5 micromolar, read-out: PERCENT INHIBITION @): 50%
inhibition at 4.5 µM (cPLA2; CONCENTRATION 4.5 micromolar, read-out: PERCENT INHIBITION @): 50%
inhibition in vivo at 5 mg/kg [1]: 4.58%

4-[(1-benzhydryl-5-{[(dimethylamino)sulfonyl]amino}-1H-indol-3-yl)methyl]-3- [Example 92]
PERCENT INHIBITION @ (cPLA2; CONCENTRATION 11 micromolar): 50%
PERCENT INHIBITION @ (cPLA2; CONCENTRATION 12.5 micromolar): 50%
PERCENT INHIBITION @ (cPLA2; CONCENTRATION 14.2 micromolar): 50%
PERCENT INHIBITION ([1]; 2 mg/Kg): 27.36%
PERCENT INHIBITION ([1]; 10 mg/Kg): 21.34%

O=C(O)c1cscc1NC(=O)c1cn(C(c2ccccc2)c2ccccc2)c2ccc(NC(=O)C3CCCC3)cc12 [Example 99, 4-[({1-benzhydryl-5-[(cyclopentylcarbonyl)amino]-1H-indol-3-yl}carbonyl)amino]-3-thiophenecarboxylic acid]
inhibition at 30 µM (cPLA2; read-out: PERCENT INHIBITION @): 13%
PERCENT INHIBITION @ (cPLA2; CONCENTRATION 100 micromolar): 50%
inhibition at 100 µM (cPLA2; [2]): 38%
inhibition in vivo at 2 mg/kg ([1]; 2 mg/Kg): 24.5%
inhibition in vivo at 10 mg/kg ([1]; 10 mg/Kg): 22.8%

CS(=O)(=O)NC(=O)CCc1cn(C(c2ccccc2)c2ccccc2)c2ccc(NC(=O)C3CCCC3)cc12 [Example 85, N-(1-benzhydryl-3-{3-[(methylsulfonyl)amino]-3-oxopropyl}-1H-indol-5-yl)cyclopentanecarboxamide]
inhibition at 100 µM (cPLA2; [2]): 31%
inhibition at 200 µM (cPLA2; CONCENTRATION 200 micromolar, read-out: PERCENT INHIBITION @): 50%
inhibition in vivo at 5 mg/kg [1]: 7.13%

O=C(O)c1ccc(CN2C(=O)S/C(=C/c3cn(CCCOc4cccc(Cc5ccccc5)c4)c4ccccc34)C2=O)cc1 [Example 82B, 4-{[5-((E)-{1-[3-(3-benzylphenoxy)propyl]-1H-indol-3-yl}methylidene)-2,4-dioxo-1,3-thiazolan-3-yl]methyl}benzoic acid]
inhibition at 6.25 µM (cPLA2; CONCENTRATION 6.25 micromolar, read-out: PERCENT INHIBITION @): 61%
inhibition at 6.5 µM (cPLA2; CONCENTRATION 6.5 micromolar, read-out: PERCENT INHIBITION @): 50%
inhibition in vivo at 5 mg/kg [1]: 4.94%

COc1cc(C(=O)O)ccc1Cc1cn(C2CCCC2)c2ccc(NC(=O)OC3CCCC3)cc12 [Example 8, 4-[(1-cyclopentyl-5-{[(cyclopentyloxy)carbonyl]amino}-1H-indol-3-yl)methyl]-3-methoxybenzoicacid]
inhibition at 65 µM (cPLA2; CONCENTRATION 65 micromolar, read-out: PERCENT INHIBITION @): 50%
inhibition at 100 µM (cPLA2; [2]): 44%
inhibition in vivo at 5 mg/kg [1]: -5.7%

O=C(O)c1cccc(NC(=O)c2cn(C(c3ccccc3)c3ccccc3)c3ccc(NC(=O)C4CCCC4)cc23)c1 [Example 100, 3-[({1-benzhydryl-5-[(cyclopentylcarbonyl)amino]-1H-indol-3-yl}carbonyl)amino]benzoic acid]
inhibition at 24 µM (cPLA2; CONCENTRATION 24 micromolar, read-out: PERCENT INHIBITION @): 50%
inhibition at 30 µM (cPLA2; read-out: PERCENT INHIBITION @): 50%
inhibition at 80 µM (cPLA2; CONCENTRATION 80 micromolar, read-out: PERCENT INHIBITION @): 50%
inhibition in vivo at 2 mg/kg ([1]; 2 mg/Kg): 6.14%
inhibition in vivo at 10 mg/kg ([1]; 10 mg/Kg): 20.7%

O=C(O)CC1C(=O)NCCN1Cc1cn(C(c2ccccc2)c2ccccc2)c2ccc(NC(=O)C3CCCC3)cc12 (stereo not drawn) [Example 67, 2-[1-({1-benzhydryl-5-[(cyclopentylcarbonyl)amino]-1H-indol-3-yl}methyl)-3-oxo-2-piperazinyl]acetic acid]
inhibition at 100 µM (cPLA2; [2]): 8%
inhibition at 400 µM (cPLA2; CONCENTRATION 400 micromolar, read-out: PERCENT INHIBITION @): 31%
inhibition in vivo at 5 mg/kg [1]: 10.8%

COc1cc(C(=O)O)ccc1Cc1cn(C(c2ccccc2)c2ccccc2)c2ccc(NS(=O)(=O)c3ccc(OC(F)(F)F)cc3)cc12 [Example 93, 4-{[1-benzhydryl-5-({[4-(trifluoromethoxy)phenyl]sulfonyl}amino)-1H-indol-3-yl]methyl}-3-methoxybenzoic acid]
inhibition at 4.2 µM (cPLA2; CONCENTRATION 4.2 micromolar, read-out: PERCENT INHIBITION @): 50%
inhibition at 4.9 µM (cPLA2; CONCENTRATION 4.9 micromolar, read-out: PERCENT INHIBITION @): 50%
inhibition in vivo at 2 mg/kg ([1]; 2 mg/Kg): -3.02%
inhibition in vivo at 10 mg/kg ([1]; 10 mg/Kg): 9.91%

O=C(O)/C=C/c1cn(C(c2ccccc2)c2ccccc2)c2ccc(NC(=O)C3CCCC3)cc12 [Example 86A, (E)-3-{1-benzhydryl-5-[(cyclopentylcarbonyl)amino]-1H-indol-3-yl}-2-propenoic acid]
inhibition at 60 µM (cPLA2; CONCENTRATION 60 micromolar, read-out: PERCENT INHIBITION @): 50%
inhibition at 70 µM (cPLA2; CONCENTRATION 70 micromolar, read-out: PERCENT INHIBITION @): 50%
inhibition at 82 µM (cPLA2; CONCENTRATION 82 micromolar, read-out: PERCENT INHIBITION @): 50%
inhibition at 118 µM (cPLA2; CONCENTRATION 118 micromolar, read-out: PERCENT INHIBITION @): 50%
inhibition in vivo at 5 mg/kg [1]: 7.4%

COc1cc(C(=O)NS(=O)(=O)C(F)(F)F)ccc1Cc1cn(C(c2ccccc2)c2ccccc2)c2ccc(NC(=O)OC3CCCC3)cc12 [Example 26, Cyclopentyl N-{1-benzhydryl-3-[2-methoxy-4-({[(trifluoromethyl)sulfonyl]amino}carbonyl)benzyl]-1H-indol-5-yl}carbamate]
inhibition at 2.4 µM (cPLA2; CONCENTRATION 2.4 micromolar, read-out: PERCENT INHIBITION @): 50%
inhibition at 2.5 µM (cPLA2; read-out: PERCENT INHIBITION @): 50%
inhibition in vivo at 5 mg/kg [1]: 25.3%

O=C(NS(=O)(=O)C(F)(F)F)c1ccc(Cc2cn(C(c3ccccc3)c3ccccc3)c3ccc([N+](=O)[O-])cc23)cc1 [Example 55, N-{4-[(1-benzhydryl-5-nitro-1H-indol-3-yl)methyl]benzoyl}(trifluoro)methanesulfonamide]
inhibition at 1.35 µM (cPLA2; CONCENTRATION 1.35 micromolar, read-out: PERCENT INHIBITION @): 50%
inhibition in vivo at 2 mg/kg ([1]; 2 mg/Kg): 7.02%
inhibition in vivo at 10 mg/kg ([1]; 10 mg/Kg): 21.5%

O=C(Nc1cccc(C(=O)O)c1)C(=O)c1cn(Cc2ccc(Cc3ccccc3)cc2)c2ccccc12 [Example 59, 3-({2-[1-(4-benzylbenzyl)-1H-indol-3-yl]-2-oxoacetyl}amino)benzoic acid]
inhibition at 6 µM (cPLA2; CONCENTRATION 6 micromolar, read-out: PERCENT INHIBITION @): 50%
inhibition at 12.5 µM (cPLA2; CONCENTRATION 12.5 micromolar, read-out: PERCENT INHIBITION @): 90%
inhibition in vivo at 5 mg/kg [1]: 2.9%

COc1cc(C(=O)NS(=O)(=O)C(F)(F)F)ccc1Cc1cn(C(c2ccccc2)c2ccccc2)c2ccc(Br)cc12 [Example 39, N-{4-[(1-benzhydryl-5-bromo-1H-indol-3-yl)methyl]-3-methoxybenzoyl}(trifluoro)methanesulfonamide]
inhibition at 0.39 µM (cPLA2; CONCENTRATION 0.39 micromolar, read-out: PERCENT INHIBITION @): 50%
inhibition at 0.7 µM (cPLA2; CONCENTRATION 0.7 micromolar, read-out: PERCENT INHIBITION @): 50%
inhibition at 0.73 µM (cPLA2; CONCENTRATION 0.73 micromolar, read-out: PERCENT INHIBITION @): 50%
inhibition at 0.75 µM (cPLA2; CONCENTRATION 0.75 micromolar, read-out: PERCENT INHIBITION @): 50%
inhibition at 0.8 µM (cPLA2; CONCENTRATION 0.8 micromolar, read-out: PERCENT INHIBITION @): 50%
inhibition at 0.9 µM (cPLA2; CONCENTRATION 0.9 micromolar, read-out: PERCENT INHIBITION @): 50%
inhibition at 1 µM (cPLA2; CONCENTRATION 1 micromolar, read-out: PERCENT INHIBITION @): 50%
inhibition at 1.2 µM (cPLA2; CONCENTRATION 1.2 micromolar, read-out: PERCENT INHIBITION @): 50%
inhibition at 1.3 µM (cPLA2; CONCENTRATION 1.3 micromolar, read-out: PERCENT INHIBITION @): 50%
inhibition at 1.6 µM (cPLA2; CONCENTRATION 1.6 micromolar, read-out: PERCENT INHIBITION @): 50%
inhibition in vivo at 2 mg/kg ([1]; 2 mg/Kg): 1.98%
inhibition in vivo at 10 mg/kg ([1]; 10 mg/Kg): -7.16%
